From US20240254118A1, “PRMT5 INHIBITORS AND USES THEREOF” (Gilead Sciences, Inc., priority 2022, published 2024)

Experiments:
[1] = tested on: SDMA signal (PRMT5 inhibition) in HCT116 MTAP-deleted cells; experiment: Symmetric di-methyl arginine image-based high content screen assay (SDMA assay), HCT116 MTAP-deleted; type: cell-based; conditions: SDMA assay; for EC50: Homo sapiens, HCT-116, 72 h, 3 days of treatment, cell line not given, taken as HCT116 MTAP-deleted, read-out: EC50 (SDMA assay); for EC50 selectivity (SDMA assay): taken as HCT116 WT versus MTAP-deleted
Procedure, shortened: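 Read-out: per-cell mean SDMA immunofluorescence (Alexa Fluor 488 secondary), cells segmented by DAPI on a high-content imager. Compound exposure in HCT116 MTAP-deleted cells lasted until fixation on Day 3; overnight 4° C primary anti-SDMA antibody staining.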

[2] = tested on: HCT116 MTAP-deleted cells; experiment: Cell viability assay (CellTiter-Glo, 7 days), HCT116 MTAP-deleted; conditions: Homo sapiens, HCT-116, 168 h

EC50 [1] [nM]	EC50 selectivity (SDMA assay) [1]	SMILES	CC50 [2] [nM]
< 1	133	Cn1ncc2c(N)nc3ccc(C(=O)N(Cc4cc5ccccn5n4)N4CCCCC4=O)cc3c21 [Example 94, 4-amino-1-methyl-N-(2-oxo-1-piperidyl)-N-(pyrazolo[1,5-a]pyridin-2-ylmethyl)pyrazolo[4,3-c]quinoline-8-carboxamide]	< 100
< 1	205	Cn1ncc2c(N)nc3ccc(C(=O)N(Cc4ccc5nsnc5c4)N4CCCC4=O)cc3c21 [Example 95, 4-amino-N-(2,1,3-benzothiadiazol-5-ylmethyl)-1-methyl-N-(2-oxopyrrolidin-1-yl)pyrazolo[4,3-c]quinoline-8-carboxamide]	< 100
1 to 5	290	CC(=O)N(C)N(Cc1ccc2nsnc2c1)C(=O)c1ccc2nc(N)c3cnn(C)c3c2c1 [Example 96, N′-acetyl-4-amino-N-(2,1,3-benzothiadiazol-5-ylmethyl)-N′,1-dimethyl-pyrazolo[4,3-c]quinoline-8-carbohydrazide]	< 100
1 to 5	98	CC(=O)N(C)N(Cc1nc2cc(Cl)ccc2o1)C(=O)c1ccc2nc(N)c3cnn(C)c3c2c1 [Example 97, N′-acetyl-4-amino-N-((5-chlorobenzo[d]oxazol-2-yl)methyl)-N′,1-dimethyl-1H-pyrazolo[4,3-c]quinoline-8-carbohydrazide]	< 100
< 1	120	CC(=O)N(C)N(Cc1ccc(C2CC2)cc1)C(=O)c1ccc2nc(N)c3cnn(C)c3c2c1 [Example 98, N′-acetyl-4-amino-N-(4-cyclopropylbenzyl)-N′,1-dimethyl-1H-pyrazolo[4,3-c]quinoline-8-carbohydrazide]	< 100
1 to 5	269	CN(C(=O)C1CC(F)(F)C1)N(Cc1ccc(C(F)(F)F)cn1)C(=O)c1ccc2nc(N)c3cnn(C)c3c2c1 [Example 99, 4-amino-N′-(3,3-difluorocyclobutane-1-carbonyl)-N′,1-dimethyl-N-((5-(trifluoromethyl)pyridin-2-yl)methyl)-1H-pyrazolo[4,3-c]quinoline-8-carbohydrazide]	< 100
< 1	7	CN(C(=O)c1ncco1)N(Cc1ccc(C(F)(F)F)cn1)C(=O)c1ccc2nc(N)c3cnn(C)c3c2c1 [Example 100, N′-(4-amino-1-methyl-1H-pyrazolo[4,3-c]quinoline-8-carbonyl)-N-methyl-N′-((5-(trifluoromethyl)pyridin-2-yl)methyl)oxazole-2-carbohydrazide]	< 100
1 to 5	108	CN(C(=O)C12CC(C1)C2)N(Cc1ccc(C(F)(F)F)cn1)C(=O)c1ccc2nc(N)c3cnn(C)c3c2c1 [Example 101, 4-amino-N′-(bicyclo[1.1.1]pentane-1-carbonyl)-N′,1-dimethyl-N-[[5-(trifluoromethyl)-2-pyridyl]methyl]pyrazolo[4,3-c]quinoline-8-carbohydrazide]	< 100

Second part, the compound before the results:

SMILES	EC50 [1] [nM]	EC50 selectivity (SDMA assay) [1]	CC50 [2] [nM]
Nc1nc2ccc(C(=O)N(Cc3ccc(C(F)(F)F)cn3)Nc3ncccn3)cc2c2ccccc12 [Example 76, 6-amino-N′-(pyrimidin-2-yl)-N-((5-(trifluoromethyl)pyridin-2-yl)methyl)phenanthridine-2-carbohydrazide]	1 to 5	204	100 to 1000
CC(=O)N(C)N(Cc1ccc(OC(F)F)cc1F)C(=O)c1ccc2nc(N)c3cnn(C)c3c2c1 [Example 77, N′-acetyl-4-amino-N-(4-(difluoromethoxy)-2-fluorobenzyl)-N′,1-dimethyl-1H-pyrazolo[4,3-c]quinoline-8-carbohydrazide]	< 1	69	< 100
Cn1ncc2c(N)nc3cc(F)c(C(=O)N(Cc4ccc(OC(F)F)cc4F)N4CCCC4=O)cc3c21 [Example 78, 4-amino-N-(4-(difluoromethoxy)-2-fluorobenzyl)-7-fluoro-1-methyl-N-(2-oxopyrrolidin-1-yl)-1H-pyrazolo[4,3-c]quinoline-8-carboxamide]	< 1	19	< 100
Cn1c(CN(C(=O)c2ccc3nc(N)c4ccccc4c3c2)N2CCCC2=O)nc2ccccc21 [Example 79, 6-Amino-N-[(1-methylbenzimidazol-2-yl)methyl]-N-(2-oxopyrrolidin-1-yl) phenanthridine-2-carboxamide]	1 to 5	406	100 to 1000
Cn1ncc2c(N)nc3ccc(C(=O)N(Cc4nc5ccccc5n4C)N4CCCC4=O)cc3c21 [Example 80, 4-Amino-1-methyl-N-[(1-methylbenzimidazol-2-yl)methyl]-N-(2-oxopyrrolidin-1-yl)pyrazolo[4,3-c]quinoline-8-carboxamide]	< 1	164	< 100
Cn1c(CN(C(=O)c2ccc3nc(N)c4c(c3c2)COC4)N2CCCC2=O)nc2ccccc21 [Example 81, 4-Amino-N-[(1-methylbenzimidazol-2-yl)methyl]-N-(2-oxopyrrolidin-1-yl)-1,3-dihydrofuro[3,4-c]quinoline-8-carboxamide]	1 to 5	101	< 100
CCn1c(CN(C(=O)c2ccc3nc(N)c4cnn(C)c4c3c2)N2CCCC2=O)nc2ccccc21 [Example 83, 4-Amino-N-[(1-ethylbenzimidazol-2-yl)methyl]-1-methyl-N-(2-oxopyrrolidin-1-yl)pyrazolo[4,3-c]quinoline-8-carboxamide]	1 to 5	242	100 to 1000
CN1CCN(N(Cc2ccc(C(F)(F)F)cn2)C(=O)c2cc3c(cc2Cl)nc(N)c2cnn(C)c23)C1=O [Example 84, 4-Amino-7-chloro-1-methyl-N-(3-methyl-2-oxo-imidazolidin-1-yl)-N-[[5-(trifluoromethyl)-2-pyridyl]methyl]pyrazolo[4,3-c]quinoline-8-carboxamide]	1 to 5	26	< 100
Cn1ncc2c(N)nc3ccc(C(=O)N(Cc4nc5ccc(F)cc5s4)N4CCCC4=O)cc3c21 [Example 85, 4-Amino-N-[(6-fluoro-1,3-benzothiazol-2-yl)methyl]-1-methyl-N-(2-oxopyrrolidin-1-yl)pyrazolo[4,3-c]quinoline-8-carboxamide]	< 1	48	< 100
CC(=O)N(C)N(Cc1nc2ccc(F)cc2s1)C(=O)c1ccc2nc(N)c3cnn(C)c3c2c1 [Example 86, N′-Acetyl-4-amino-N-[(6-fluoro-1,3-benzothiazol-2-yl)methyl]-N′, 1-dimethyl-pyrazolo[4,3-c]quinoline-8-carbohydrazide]	< 1	92	< 100
CC(=O)N(C)N(Cc1nc2cc(C(F)(F)F)ccc2s1)C(=O)c1cc2c(cc1Cl)nc(N)c1cnn(C)c12 [Example 87, N′-Acetyl-4-amino-7-chloro-N′,1-dimethyl-N-[[5-(trifluoromethyl)-1,3-benzothiazol-2-yl]methyl]pyrazolo[4,3-c]quinoline-8-carbohydrazide]	1 to 5	104	100 to 1000
Cn1ncc2c(N)nc3ccc(C(=O)N(Cc4cn5cc(C#N)ccc5n4)N4CCCC4=O)cc3c21 [Example 88, 4-Amino-N-[(6-cyanoimidazo[1,2-a]pyridin-2-yl)methyl]-1-methyl-N-(2-oxopyrrolidin-1-yl)pyrazolo[4,3-c]quinoline-8-carboxamide]	> 5	221	100 to 1000
Cn1ncc2c(N)nc3ccc(C(=O)N(Cc4nc5cc(C(F)(F)F)ccc5s4)N4CCOC4=O)cc3c21 [Example 89, 4-Amino-1-methyl-N-(2-oxooxazolidin-3-yl)-N-[[5-(trifluoromethyl)-1,3-benzothiazol-2-yl]methyl]pyrazolo[4,3-c]quinoline-8-carboxamide]	< 1	204	< 100
Cn1ncc2c(N)nc3ccc(C(=O)N(Cc4cn5cc(F)ccc5n4)N4CCCCC4=O)cc3c21 [Example 90, 4-Amino-N-[(6-fluoroimidazo[1,2-a]pyridin-2-yl)methyl]-1-methyl-N-(2-oxo-1-piperidyl)pyrazolo[4,3-c]quinoline-8-carboxamide]	1 to 5	53	< 100
CCC(=O)N(C)N(Cc1cn2cc(F)ccc2n1)C(=O)c1ccc2nc(N)c3cnn(C)c3c2c1 [Example 91, 4-Amino-N-[(6-fluoroimidazo[1,2-a]pyridin-2-yl)methyl]-N′,1-dimethyl-N′-propanoyl-pyrazolo[4,3-c]quinoline-8-carbohydrazide]	1 to 5	143	< 100
CC(=O)N(C)N(Cc1nc2cc(F)ccc2s1)C(=O)c1ccc2nc(N)c3cnn(C)c3c2c1 [Example 92, N′-Acetyl-4-amino-N-[(5-fluoro-1,3-benzothiazol-2-yl)methyl]-N′,1-dimethyl-pyrazolo[4,3-c]quinoline-8-carbohydrazide]	< 1	257	< 100
Cn1ncc2c(N)nc3ccc(C(=O)N(Cc4nc5cc(Cl)ccc5s4)N4CCCCC4=O)cc3c21 [Example 93, 4-amino-N-[(5-chloro-1,3-benzothiazol-2-yl)methyl]-1-methyl-N-(2-oxo-1-piperidyl)pyrazolo[4,3-c]quinoline-8-carboxamide]	< 1	226	< 100
